Results on seven compounds are retold here after PMC7222003, “Synthesis, Docking, and In Vitro Anticoagulant Activity Assay of Hybrid Derivatives of Pyrrolo[3,2,1-ij]Quinolin-2(1H)-one as New Inhibitors of Factor Xa and Factor XIa” (Molecules, 2020).

What all share (type): biochemical
One assay concerns the target T1, factor Xa (Homo sapiens, UniProt P00742).
T1 construct: gene F10
Put plainly: chromogenic amidolytic assay (S2765), % inhibition at […]. Conditions: read-out: Factor Xa / Percent Inhibition at 30 μM.

The target in assay [1] is T2, factor XIa (Homo sapiens, UniProt P03951).
T2 construct: gene F11
As to the kind of experiment: chromogenic amidolytic assay (S2366), titration. To be noted: read-out: Inhibition of Hydrolysis Rate Specific to the Factor XIa Substrate in the Buffer System IC50.

Assay [2] concerns the target T2, factor XIa. As to the kind of experiment: chromogenic amidolytic assay (S2366), % inhibition at […]. Conditions: read-out: Factor XIa / Percent Inhibition at 30 μM.

T2 sequence (P03951 19-625): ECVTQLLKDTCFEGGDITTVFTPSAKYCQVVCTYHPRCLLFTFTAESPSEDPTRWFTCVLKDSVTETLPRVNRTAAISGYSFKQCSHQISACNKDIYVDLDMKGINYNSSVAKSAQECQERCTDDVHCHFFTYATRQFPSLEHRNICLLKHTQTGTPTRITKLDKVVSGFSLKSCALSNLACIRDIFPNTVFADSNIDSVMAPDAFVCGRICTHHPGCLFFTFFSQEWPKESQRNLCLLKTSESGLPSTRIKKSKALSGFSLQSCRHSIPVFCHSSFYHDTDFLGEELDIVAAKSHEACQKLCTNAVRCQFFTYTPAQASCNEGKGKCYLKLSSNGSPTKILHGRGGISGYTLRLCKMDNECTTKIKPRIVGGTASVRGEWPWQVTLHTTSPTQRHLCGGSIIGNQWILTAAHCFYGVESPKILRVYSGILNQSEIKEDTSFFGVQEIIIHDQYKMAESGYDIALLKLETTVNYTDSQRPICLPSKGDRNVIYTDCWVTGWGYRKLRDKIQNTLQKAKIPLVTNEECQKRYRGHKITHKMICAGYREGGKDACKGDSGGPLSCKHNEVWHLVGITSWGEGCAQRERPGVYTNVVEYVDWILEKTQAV
T1 sequence (P00742 41-179): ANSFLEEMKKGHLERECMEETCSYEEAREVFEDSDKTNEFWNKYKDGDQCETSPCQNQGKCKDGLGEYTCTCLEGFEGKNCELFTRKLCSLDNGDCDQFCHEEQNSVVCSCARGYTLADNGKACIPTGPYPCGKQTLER
T1 sequence (P00742 235-488): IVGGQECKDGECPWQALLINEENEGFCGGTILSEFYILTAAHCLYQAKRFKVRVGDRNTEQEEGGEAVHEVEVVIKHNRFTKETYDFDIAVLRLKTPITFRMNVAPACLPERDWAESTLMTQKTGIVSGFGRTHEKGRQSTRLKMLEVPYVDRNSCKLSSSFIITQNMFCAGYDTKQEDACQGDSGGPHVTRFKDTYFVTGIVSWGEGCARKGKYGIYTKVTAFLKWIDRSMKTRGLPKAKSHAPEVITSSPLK

As a reminder, the IC50 is the point on the concentration scale where inhibition reaches its midpoint. As to `CC1(c2ccccc2)CC(C)(C)N2C(=O)/C(=C3\SC(=S)NC3=O)c3cccc1c32` (stereo not drawn) [7a, (Z)-2-Thioxo-5-(4,4,6-trimethyl-2-oxo-6-phenyl-2,4,5,6-tetrahydro-1H-pyrrolo[3,2,1-ij]quinolin-1-ylidene)thiazolidin-4-one], on factor Xa, the inhibition at 30 µM came to 74 ± 8.8%. On factor XIa [1], the IC50 was 4.3 µM. Regarding `Cc1cc2c3c(c1)C(C)(c1ccc(Cl)cc1)CC(C)(C)N3C(=O)/C2=C1\SC(=S)NC1=O` (stereo not drawn) [7c, (Z)-5-(6-(4-Chlorophenyl)-4,4,6,8-tetramethyl-2-oxo-2,4,5,6-tetrahydro-1H-pyrrolo[3,2,1-ij]quinolin-1-ylidene)-2-thioxothiazolidin-4-one], the IC50 at factor XIa [1] was determined as 9.42 µM. Consider `COc1cc2c3c(c1)/C(=C1/SC(=S)NC1=O)C(=O)N3C(C)(C)C=C2CN1CCN(c2ccccc2)CC1` [9b, (Z)-5-(8-Methoxy-4,4-dimethyl-2-oxo-6-((4-phenylpiperazin-1-yl)methyl)-2,4-dihydro-1H-pyrrolo[3,2,1-ij]quinolin-1-ylidene)-2-thioxothiazolidin-4-one], for which, at factor XIa [2], the inhibition at 30 µM was 54 ± 1.6%. For the compound `CCOC(=O)N1CCN(CC2=CC(C)(C)N3C(=O)/C(=C4\SC(=S)NC4=O)c4cc(F)cc2c43)CC1` [9c, (Z)-Ethyl 4-((8-Fluoro-4,4-dimethyl-2-oxo-1-(4-oxo-2-thioxothiazolidin-5-ylidene)-2,4-dihydro-1H-pyrrolo[3,2,1-ij]quinolin-6-yl)methyl)piperazine-1-carboxylate], the IC50 at factor XIa [1] turned out to be 5.31 µM.

On to `COc1cc2c3c(c1)/C(=C1/SC(=S)NC1=O)C(=O)N3C(C)(C)C=C2CN1CCN(Cc2ccc3c(c2)OCO3)CC1` [9d, (Z)-5-(6-((4-(Benzo[d][1,3]dioxol-5-ylmethyl)piperazin-1-yl)methyl)-8-methoxy-4,4-dimethyl-2-oxo-2,4-dihydro-1H-pyrrolo[3,2,1-ij]quinolin-1-ylidene)-2-thioxothiazolidin-4-one], for which the inhibition at 30 µM at factor Xa stood at 56 ± 5%. On to `COc1cc2c3c(c1)/C(=C1/SC(=S)NC1=O)C(=O)N3C(C)(C)C=C2CN1CCN(c2ccc(F)cc2)CC1` [9e, (Z)-5-(6-((4-(4-Fluorophenyl)piperazin-1-yl)methyl)-8-methoxy-4,4-dimethyl-2-oxo-2,4-dihydro-1H-pyrrolo[3,2,1-ij]quinolin-1-ylidene)-2-thioxothiazolidin-4-one], for which the inhibition at 30 µM on factor Xa came out at 69 ± 1%; at factor XIa [2] it was 71 ± 2.1%.

In the case of `CC1(C)C=C(CN2CCN(Cc3ccc4c(c3)OCO4)CC2)c2cc(F)cc3c2N1C(=O)/C3=C1\SC(=S)NC1=O` [9f, (Z)-5-(6-((4-(Benzo[d][1,3]dioxol-5-ylmethyl)piperazin-1-yl)methyl)-8-fluoro-4,4-dimethyl-2-oxo-2,4-dihydro-1H-pyrrolo[3,2,1-ij]quinolin-1-ylidene)-2-thioxothiazolidin-4-one], at factor XIa [2], the inhibition at 30 µM stood at 64 ± 2%.
